Measured values: patent publication US20030215529A1, “Composition and pharmaceutical preparation containing same for the treatment of herpes and related viral infections” (Dalhousie University, priority 1998, published 2003)
Values after ≈ are worked out from the molar mass of the structure shown.

What was measured:
[1] = test system: HSV-1 (acyclovir-sensitive strain, BW-S strain); test: Plaque reduction assay (Example 6), HSV-1 BW-S strain on Vero cells; format: cell-based, herpes simplex virus type 1
HSV-1 strain #15577 [2] = test: Binding competition experiment, strain #15577; format: cell-based, herpes simplex virus type 1; details: mixed with virus and used immediately
Experimental: (§1) The anti-herpes effect of sodium heparin was further investigated by a binding competition experiment. In this experiment, 0.5 ml samples of HSV-1 (about 100 pfu) were mixed with 0.5 ml of sodium heparin at different concentrations. The mixtures were immediately used to infect Vero cells at 37° C. for 1 h. Following the incubation, the number of plaques were determined in the plaque assay. […] At 1 mg/ml heparin, the % plaque inhibition was 92%. Similar results were obtained when the gC-deficient HSV-1, Delta gC2-3, was used. In which case, the % plaque inhibition for 62.5 μg/ml and 1 mg/ml heparin were 77% and 86%, respectively.

[3] = test system: gC-deficient HSV-1, Delta gC2-3; test: Binding competition experiment, Delta gC2-3; format: cell-based, herpes simplex virus type 1; details: mixed with virus and used immediately
Experimental: as §1

HSV-1 [4] = test: Plaque reduction assay (Example 3), HSV-1 on Vero cells; format: cell-based, herpes simplex virus type 1
wild-type HSV-1 = test: Penetration assay, wild-type HSV-1 into Vero cells; format: cell-based, herpes simplex virus type 1
Experimental: (§2) Penetration Assay. The penetration assay was conducted using the method as described in Example with modifications. Confluent Vero cell monolayers in 25 ml tissue culture flasks were chilled to 4° C. for 45 mm. The monolayers were infected with 300 pfu of HSV-1 in 2.5 ml of cold MEM Earle's medium. Attachment was synchronized for 1 h at 4° C. The flasks were washed twice with 4 ml of cold PBS to remove any unbound virus. The monolayers were covered with 5 ml of maintenance medium and shifted to 37° C. […] The flasks were incubated at 37° C. for 90 min, after which the monolayers were washed twice with 4 ml of PBS and covered with 10 ml of 0.8% methylcellulose in maintenance medium. Plaque formation was allowed at 37° C. for 72 h. For the citrate buffer treated group, 3 ml of buffer was added to the monolayers for 1 min. The cells were washed twice with PBS, after which medium was added to allow plaque formation. For the no treatment control group, following medium removal, the monolayers were washed twice with PBS and medium added to allow plaque formation.
Citrate buffer at pH 3 represents the penetration kinetics of HSV into Vero cells. The low pH removes adherent virus particles from the cell surface (i.e., those that have not yet penetrated). At time 20 min, all the wild type virus particles have penetrated and can not be removed by the low pH buffer (Table 6). […] This reduction is less obvious than the heparin treatment. At time 0 min, only 19% of the virus could penetrate and form plaque as compared to 49% in the heparin treatment.

HSV-1 strain Delta gC2-3 = test: Binding experiment: residual infectious virus after incubation with sample, Delta gC2-3; format: cell-based, herpes simplex virus type 1; details: 2 mg heparin with 10^5 pfu, 36° C., 1 h; water control = 100%
Experimental: (§3) The mixture was serially diluted in medium and the number of residual infectious virus was determined by the plaque assay. The number of plaque developed in the water treatment control was taken as 100%.

HSV-1 strain #15577 [5] = test: Binding experiment: residual infectious virus after incubation with sample, strain #15577; format: cell-based, herpes simplex virus type 1; details: 2 mg heparin with 10^5 pfu, 36° C., 1 h; water control = 100%
Experimental: as §3

[6] = test system: HSV-1 strain Delta gC2-3 (glycoprotein C deficient); test: Plaque reduction assay, glycoprotein C deficient HSV-1; format: cell-based, herpes simplex virus type 1; details: strain Delta gC2-3, plaque reduction assay
[7] = test system: glycoprotein C-deficient mutant HSV-1; test: Penetration assay, gC-deficient HSV-1 mutant into Vero cells; format: cell-based, herpes simplex virus type 1
Experimental: as §2
However, by 60 min, all the virus particles appeared to have penetrated.

HSV-2, Strain no. 333 [8] = test: HSV-2 mouse vaginal infection model, survival; format: in vivo, BALB/c mice; details: 3% Acyclovir cream
Experimental: (Batch no. 200205), provided by the Department of Biology, the Chinese University of Hong Kong, Hong Kong. […] Virus is Herpes simplex type II (HSV-2, Strain no. 333, batch no. 200104010), provided by the Department of Virological Diagnosis, Institution of Virology, Chinese Preventative Medical Academy. Needles for vaginal tract infection (size no. of 12) were prepared by the Department of Virological Diagnosis, Chinese Preventative Medical Academy. African green monkey kidney cells (Vero cells) were provided by the Department of Virological Diagnosis, Chinese Preventative Medical Academy. Physiological saline and cell culture medium was provided by the Department of Virological Diagnosis, Chinese Preventative Medical Academy. Inverted microscope was provided by the Department of Virological Diagnosis, Chinese Preventative Medical Academy. Carbon dioxide incubator was provided by the Department of Virological Diagnosis, Chinese Preventative Medical Academy. And other related apparatuses: provided by the Department of Virological Diagnosis, Chinese Preventative Medical Academy.
Animals: BALB/c mice, female, body weight range of 18-20 grams. Animal license no. YDHZ 01-3003, supplied by the Animal Center of the Chinese Medical Academy and Peking Union Medical College.
1. Target of the experiments: The mice could develop viral vaginitis following infection with HSV-2. […] Statistical analysis, t values and p values, was calculated in comparison with the virus control group. Efficacy of the testing samples will be evaluated on the basis of statistical calculation.
2. […] The number of animals per group was 10. Ten additional animals that were not infected with HSV-2 and received no treatment served as the uninfected control group.
Treatment began on day 3 post-infection. This was achieved by applying the cream to the vaginal tract with cotton swabs. The creams were given at a dose of 2 mg per mouse twice daily for a six-day duration. Mortality and the number of days for lethality to occur were recorded. The experiment was repeated twice. The protection rates and life span extension rates were calculated. The efficacy of testing agents were judged in comparison with the […] on the basis of the calculated t values and p values.
The survival rate and number of days for lethality to occur were recorded. The latter was expressed as the average life span in days.

HSV-2, Strain no. 333 [9] = test: Recovery of HSV-2 from vaginal samples of infected mice (CPE on Vero cells); format: in vivo, BALB/c mice; details: Acyclovir cream 3 g %
HSV-1, Strain no. SM44 = test: HSV-1 skin lesion model in guinea pigs; format: in vivo, guinea pig; details: for Extent of Skin Pathological Changes EPC (Mean ± SD) / Inhibition rate IR: Acyclovir cream 3 g %
Source text: Material. […] Virus is Herpes simplex type 1 (HSV-1, Strain no. SM44), imported from The American Type Culture Collection. The virus strain was proliferated and preserved by the Department of Virological Diagnosis, Institution of Virology, Chinese Preventative Medical Academy. “Bunched needle” refers to seven individual needles (size No. 7) bunched together as one bunch and seven bunches were put together as one “Bunched needle”. Other related apparatuses: All other apparatuses and reagents were provided by the Department of Virological Diagnosis, Chinese Preventative Medical Academy.
Animals: Guinea pigs, half male and half female, 200-250 grams (animal license no. YDHZ SCXK11-00-0006), supplied by the Animal Center of the Chinese Medical Academy and Peking Union Medical College.
HSV-1 cutaneous lesion in guinea pig. The animals were grouped in 5. Animals within each group will be the same gender and have similar body weight. The hair was removed from dorsal side of the animal and the skin was abraded with needles as described above. The entire abraded area was infected with 150 μl of HSV-1 stock suspension.
Typical herpes lesions appeared on the infected area on the 4th day of infection. The extent of pathological changes was scored as described below. […] The amount of cream given to each animal was 1.5 gram per dose twice daily for a six-day duration.
Daily records of the pathological changes infected area were made according to the following criteria:
When the skin lesions developed up to ¼ of the total area, the pathological changes were scored as 1.0-1.6;
When the skin lesions developed on 2/4 of the total area, the pathological changes were scored as 1.7-2.4;
When the skin developed on ¾ of the total area, the pathological changes were scored as 2.5-3.2;
When the skin lesions developed 4/4 of the total areas, the pathological changes were scored as 3.3-4.0;
When the skin herpes scars developed up to ¼ of the total areas, the pathological changes were scored as 0.9-1.0;
When the skin herpes scars were up to 2/4 of the total areas, the pathological changes were scored as 0.7-0.8;
When the skin herpes scars were up to ¾ of the total areas, the pathological changes were scored as 0.5-0.6;
When the skin herpes scars were up to 4/4 of the total areas, the pathological changes were scored as 0.2-0.4;
When the skin herpes scars were all detached and lesions healed, the pathological changes were scored as 0.

HSV-induced cell fusion = details: Srinivas et al.; cited from earlier work
HSV-1 [10] = details: Xu et al., Heterocycles 1994; cited from earlier work
[11] = Tabba et al.; cited from earlier work
[12] = Heparin 1000 μg/ml added at Time 0 min
[13] = Heparin 1000 μg/ml added at Time 10 min
[14] = Heparin 1000 μg/ml added at Time 20 min

## heparin
[1]
  anti-HSV-1 IC50: 300 µg/mL
HSV-1 strain #15577 [2]; 62.5 μg/ml
  % plaque inhibition: 88%
HSV-1 strain #15577 [2]; 1 mg/ml
  % plaque inhibition: 92%
[3]; 62.5 μg/ml
  % plaque inhibition: 77%
[3]; 1 mg/ml
  % plaque inhibition: 86%
HSV-1 [4]; HSV-1 strain #15577, plaque reduction assay
  IC50: 750 µg/mL
HSV-1 [4]; plaque reduction assay, added 1 h after virus, strains 15577 and Delta gC2-3
  IC50 values: 750 to 1000 µg/mL
wild-type HSV-1; [12]
  % Plaques: 49%
wild-type HSV-1; Heparin 1000 μg/ml added at Time 2 min
  % Plaques: 57%
wild-type HSV-1; Heparin 1000 μg/ml added at Time 4 min
  % Plaques: 88%
wild-type HSV-1; Heparin 1000 μg/ml added at Time 6 min
  % Plaques: 86%
wild-type HSV-1; [13]
  % Plaques: 100%
wild-type HSV-1; Heparin 1000 μg/ml added at Time 15 min
  % Plaques: 100%
wild-type HSV-1; [14]
  % Plaques: 100%
HSV-1 strain Delta gC2-3
  original virus still infectious: 42%
HSV-1 strain #15577 [5]
  original virus still infectious: 30%
[6]
  IC50: > 1000 µg/mL
[7]; [12]
  % Plaques: 62%
[7]; [13]
  % Plaques: 90%
[7]; [14]
  % Plaques: 100%
[7]; Heparin 1000 μg/ml added at Time 30 min
  % Plaques: 100%
[7]; Heparin 1000 μg/ml added at Time 40 min
  % Plaques: 100%
[7]; Heparin 1000 μg/ml added at Time 50 min
  % Plaques: 84%
[7]; Heparin 1000 μg/ml added at Time 60 min
  % Plaques: 100%
[7]; heparin 1000 μg/ml, in words
  effects on the penetration of the gC-deficient mutant into Vero cells: no apparent effects

## Nc1nc2c(ncn2COCCO)c(=O)[nH]1 [Acyclovir]
HSV-2, Strain no. 333 [8]
  Life Span Extension Rate: 81.2%
  Protection Rate: 78.6%
  Survival: 80%
HSV-2, Strain no. 333 [8]; 30 animals
  No. of death: 6
  No. of survival: 24
HSV-2, Strain no. 333 [8]; listed as acyclovir
  Life Span Extension Rate: 81.3%
HSV-2, Strain no. 333 [9]
  Therapeutic Rate: 71%
HSV-2, Strain no. 333 [9]; 30 vaginal samples
  No. of samples containing HSV-2 After Treatment: 8
  No. of samples containing HSV-2 Before Treatment: 30
HSV-1, Strain no. SM44; Day 4 (start of treatment)
  Extent of Skin Pathological Changes EPC (Mean ± SD): 3.87 ± 0.12 cm^2
  Inhibition rate IR: 0%
HSV-1, Strain no. SM44; Day 5
  Extent of Skin Pathological Changes EPC (Mean ± SD): 3.54 ± 0.22 cm^2
  Inhibition rate IR: 11%
HSV-1, Strain no. SM44; Day 6
  Extent of Skin Pathological Changes EPC (Mean ± SD): 2.77 ± 0.40 cm^2
  Inhibition rate IR: 30%
HSV-1, Strain no. SM44; Day 7
  Extent of Skin Pathological Changes EPC (Mean ± SD): 2.02 ± 0.30 cm^2
  Inhibition rate IR: 44%
HSV-1, Strain no. SM44; Day 8
  Extent of Skin Pathological Changes EPC (Mean ± SD): 1.21 ± 0.38 cm^2
  Inhibition rate IR: 63%
HSV-1, Strain no. SM44; Day 9
  Extent of Skin Pathological Changes EPC (Mean ± SD): 0.82 ± 0.16 cm^2
  Inhibition rate IR: 71%
HSV-1, Strain no. SM44; Day 10
  Extent of Skin Pathological Changes EPC (Mean ± SD): 0.38 ± 0.18 cm^2
  Inhibition rate IR: 84%
HSV-1, Strain no. SM44; Day 11
  Extent of Skin Pathological Changes EPC (Mean ± SD): 0.09 ± 0.19 cm^2
  Inhibition rate IR: 96%
HSV-1, Strain no. SM44; cream-treated groups, seen in some animals of the virus control group
  signs of paralysis in lower limbs: not observed

## apolipoprotein A-I: high density serum apolipoprotein A-I
HSV-induced cell fusion
  concentration inhibiting HSV-induced cell fusion: 1 µM

## O=Cc1cc(O)c(O)c(O)c1 [gallic aldehyde]
HSV-1 [10]
  IC50 against HSV-1: 12.5 µg/mL (≈ 81.1 µM)

## prunellin
[11]
  pH in aqueous solution: 7.4

## geponin
HSV-1 [10]
  IC50 against HSV-1: 25 µg/mL
